ChEMBL document CHEMBL1201862, “PubChem BioAssay data set” (2004)
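1) Cells in 96-well plates. 2) Compound, 48 h, 5 concentrations. 3) Linear interpolation between surrounding doses. 4) Unreached endpoint = highest concentration. Here, GI50 denotes the concentration required for 50% inhibition of growth.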 The source made the active and inactive calls. No stated cut-off is given here; in the data, active = GI50 up to about 1.1 µM and inactive = higher.

How the values were obtained:
Test in all cases: DTP human tumour cell line panel, 48 h
[1] = test system: HCT-116
[2] = test system: SN12C
[3] = test system: OVCAR-5
[4] = test system: MDA-N
[5] = test system: OVCAR-3
[6] = test system: A498
[7] = test system: ACHN
[8] = test system: HCC 2998
[9] = test system: SNB-75
[10] = test system: DU-145
[11] = test system: EKVX
[12] = test system: CCRF-CEM
[13] = test system: OVCAR-4
[14] = test system: UACC-62
[15] = test system: Malme-3M
[16] = test system: T47D
[17] = test system: PC-3
[18] = test system: SF-295
[19] = test system: SR
[20] = test system: DMS-114

| SMILES | GI50 [1] | GI50 [2] | GI50 [3] | GI50 [4] | GI50 [5] | GI50 [6] | GI50 [7] | GI50 [8] | GI50 [9] | GI50 [10] | GI50 [11] | GI50 [12] | GI50 [13] | GI50 [14] | GI50 [15] | GI50 [16] | GI50 [17] | GI50 [18] | GI50 [19] | GI50 [20] |
| --- | --- | --- | --- | --- | --- | --- | --- | --- | --- | --- | --- | --- | --- | --- | --- | --- | --- | --- | --- | --- |
| CCOC(=O)CC(N1CC1)N1CC1 | > 10 µM (inactive) | > 10 µM (inactive) | > 10 µM (inactive) | > 10 µM (inactive) | > 10 µM (inactive) | > 10 µM (inactive) | > 10 µM (inactive) | > 10 µM (inactive) | > 10 µM (inactive) | > 10 µM (inactive) | > 10 µM (inactive) | > 10 µM (inactive) | > 10 µM (inactive) | > 10 µM (inactive) | > 10 µM (inactive) | > 10 µM (inactive) | > 10 µM (inactive) | > 10 µM (inactive) | > 10 µM (inactive) | – |
| O=C(Nc1ccccc1C(=O)NCCCO)/C(=C/c1ccccc1O)NC(=O)c1ccccc1 | 37.3 µM (inactive) | > 80.9 µM (inactive) | > 100 µM (inactive) | > 43.5 µM (inactive) | 48.8 µM (inactive) | > 91.2 µM (inactive) | 30.8 µM (inactive) | > 100 µM (inactive) | 20.2 µM (inactive) | > 81.8 µM (inactive) | 65.6 µM (inactive) | > 100 µM (inactive) | 56.8 µM (inactive) | 19.5 µM (inactive) | 95.3 µM (inactive) | 16.3 µM (inactive) | 33.1 µM (inactive) | 34.4 µM (inactive) | > 100 µM (inactive) | – |
| CC(C)=CC1C(C(=O)OCc2cc3c(cc2Cl)OCO3)C1(C)C (stereo not drawn) | 26.4 µM (inactive) | 28.6 µM (inactive) | 39.2 µM (inactive) | 24.7 µM (inactive) | 20.6 µM (inactive) | 26.9 µM (inactive) | 28.7 µM (inactive) | 17 µM (inactive) | 26.9 µM (inactive) | > 100 µM (inactive) | 13.5 µM (inactive) | 32.6 µM (inactive) | 49.8 µM (inactive) | 43.1 µM (inactive) | 15.5 µM (inactive) | 17.3 µM (inactive) | 11.5 µM (inactive) | 26.3 µM (inactive) | 15.7 µM (inactive) | – |
| O=C1c2cccc3c(Cl)ccc(c23)C(=O)N1CCCN1CCN(CCCN2C(=O)c3cccc4c(Cl)ccc(c34)C2=O)CC1 | 66.7 µM (inactive) | > 100 µM (inactive) | > 100 µM (inactive) | – | > 100 µM (inactive) | > 100 µM (inactive) | 81.8 µM (inactive) | 53.3 µM (inactive) | 40.2 µM (inactive) | – | > 100 µM (inactive) | > 100 µM (inactive) | > 100 µM (inactive) | > 100 µM (inactive) | > 100 µM (inactive) | – | – | 97.1 µM (inactive) | – | > 100 µM (inactive) |
| O=C(CCc1ccccc1)n1cccc1CO | > 100 µM (inactive) | > 100 µM (inactive) | > 100 µM (inactive) | > 100 µM (inactive) | > 100 µM (inactive) | > 100 µM (inactive) | > 100 µM (inactive) | > 100 µM (inactive) | > 100 µM (inactive) | > 100 µM (inactive) | > 100 µM (inactive) | > 100 µM (inactive) | > 100 µM (inactive) | > 100 µM (inactive) | > 100 µM (inactive) | 96.4 µM (inactive) | > 100 µM (inactive) | > 100 µM (inactive) | > 100 µM (inactive) | – |
| CC1=C[C@@H](C)C[C@]2(C)CC[C@H](O2)[C@]23CC[C@](CO)(C[C@H](O2)[C@@H]2O[C@@](C)(CC2=O)[C@@H](O)[C@H]2CC[C@@]4(CCC[C@@H](O4)[C@H](C)C(=O)O[C@H]4C[C@H]([C@]5(O)OCC[C@H](C)[C@@H]5O)O[C@H]4C=C1)O2)O3 | 0.0222 µM (active) | 0.0212 µM (active) | 0.0316 µM (active) | 0.0951 µM (active) | 0.0171 µM (active) | 0.00229 µM (active) | 0.0249 µM (active) | 0.0906 µM (active) | 0.001 µM (active) | 0.247 µM (active) | 0.013 µM (active) | 0.00471 µM (active) | 0.0179 µM (active) | 0.00325 µM (active) | 0.00873 µM (active) | 0.427 µM (active) | 0.0137 µM (active) | 0.00341 µM (active) | 0.0139 µM (active) | – |
| O=C1/C(=C/c2ccc(Br)cc2)CCC/C1=C\c1ccc(Br)cc1 | 1.73 µM (inactive) | 19.7 µM (inactive) | – | – | 4.08 µM (inactive) | 5.32 µM (inactive) | 12.2 µM (inactive) | 2.31 µM (inactive) | 20.6 µM (inactive) | – | 24.2 µM (inactive) | 5.11 µM (inactive) | 10.1 µM (inactive) | 15.1 µM (inactive) | 19.6 µM (inactive) | – | – | – | – | 13.2 µM (inactive) |
| COc1c(C)c(O)c2c(=O)cc(-c3ccccc3)oc2c1C | > 100 µM (inactive) | > 100 µM (inactive) | > 100 µM (inactive) | – | > 100 µM (inactive) | > 100 µM (inactive) | > 100 µM (inactive) | > 100 µM (inactive) | > 100 µM (inactive) | – | > 100 µM (inactive) | > 100 µM (inactive) | > 100 µM (inactive) | > 100 µM (inactive) | > 100 µM (inactive) | – | – | > 100 µM (inactive) | – | > 100 µM (inactive) |
